Experiments:
Rattus norvegicus [1] = species on record: Rattus norvegicus; experiment: (§1) Inhibitory activity against graft vs host disease in rat.; type: functional
[2] = (§2) Inhibitory activity against protein kinase C from Jurkat cells.; type: cell-based
Rattus norvegicus [3] = species on record: Rattus norvegicus; experiment: as §1; type: functional, organism-based
[4] = as §2; type: cell-based; design: concentration or dose not given beside the values; settings: dose or concentration not given here

SMILES | IC50 [2] | IC50 (Rattus norvegicus [3]) | Inhibition (Rattus norvegicus [1]) | inhibition [4]
O=C1ON=C(c2cccs2)C1=CC=Cc1ccccc1 | 1 µM | 3 µM | 93% | 
Cn1cc(/C=C2\C(=O)ON=C2c2cccs2)c2ccccc21 |  |  |  | 21%
O=C(O)COc1ccc(/C=C2\C(=O)ON=C2c2cccs2)cc1 | 8.2 µM | 100 µM | -7% | 
O=C1ON=C(c2cccs2)/C1=C/c1ccc(F)cc1 | 8.8 µM | 4.8 µM | 92% | 98%
CC1=CC(C)=N/C1=C/c1c(-c2cccs2)noc1O |  |  |  | 19%
O=C1ON=C(c2ccccc2)/C1=C/c1ccco1 | 0.9 µM | 2.9 µM | 89% | 84%
Nc1ccc(C2=NOC(=O)/C2=C\c2cccs2)cc1 |  |  |  | 0%
COc1ccc(OC)c(C2=NOC(=O)/C2=C\c2cccs2)c1 | 1.9 µM | 7.9 µM | 59% | 100%
O=C1ON=C(c2cccs2)/C1=C/c1ccc(Br)cc1 | 84 µM |  | 91% | 100%
COc1ccccc1C1=NOC(=O)/C1=C\c1cccs1 | 1.2 µM | 7.1 µM | 66% | 100%
Oc1onc(-c2cccs2)c1/C=C1\C=CC=N1 |  |  |  | 8.9%
O=C1ON=C(c2cccs2)/C1=C/c1ccccc1 | 15 µM | 4.4 µM | 88% | 81%
O=C1ON=C(c2ccccc2O)/C1=C/c1cccs1 | 25 µM |  | 20% | 
Oc1onc(-c2cccs2)c1/C=C1/C=Nc2ccccc21 |  |  |  | 48%
COc1ccc(C2=NOC(=O)/C2=C\c2cccs2)cc1 | 0.7 µM | 11 µM | 44% | 100%
CC(=O)Oc1ccc(/C=C2\C(=O)ON=C2c2cccs2)cc1 | 11 µM | 4.5 µM | 65% | 81%
O=C1ON=C(c2ccc([N+](=O)[O-])cc2)/C1=C/c1cccs1 |  |  |  | 0%
O=C1ON=C(c2ccccc2)/C1=C/c1ccccc1 | 14 µM |  |  | 

Second part, led by results:

IC50 [2] | IC50 (Rattus norvegicus [3]) | SMILES | Inhibition (Rattus norvegicus [1]) | inhibition [4]
11 µM |  | COc1cc(/C=C2\C(=O)ON=C2c2cccs2)ccc1OC(C)=O | 43% | 82%
2.9 µM | 3 µM | O=C1ON=C(c2cccs2)/C1=C/c1ccsc1 | 95% | 100%
5.5 µM | 5.7 µM | O=C1ON=C(c2cccs2)/C1=C/c1ccccc1O | 87% | 
> 100 µM |  | COc1ccc(/C=C2\C(=O)ON=C2c2cccs2)c(OC)c1 |  | 35%
5.3 µM | 1.6 µM | Cc1cc(O)cc(C)c1/C=C1\C(=O)ON=C1c1cccs1 | 88% | 78%
3.5 µM | 4.2 µM | O=C1ON=C(c2cccs2)/C1=C/c1ccc(O)cc1 | 87% | 93%
1.4 µM | 5.8 µM | O=C1ON=C(c2cccs2)/C1=C/c1ccco1 | 88% | 100%
1 µM | 3.7 µM | O=C1ON=C(c2cccs2)/C1=C/c1cccs1 | 97% | 100%
11 µM | 6.2 µM | O=C1ON=C(c2cccs2)/C1=C/c1ccc(Cl)cc1 | 71% | 82%
22 µM |  | COc1cccc(/C=C2\C(=O)ON=C2c2cccs2)c1 | 66% | 65%
9.9 µM |  | O=C1ON=C(c2cccs2)/C1=C/c1cccc(O)c1 | 58% | 
23 µM |  | O=C1ON=C(c2cccs2)/C1=C/c1cccc(Cl)c1 |  | 24%
1.7 µM | 3.6 µM | O=C1ON=C(c2cccs2)/C1=C/c1ccoc1 | 94% | 100%
35 µM |  | CC(C)(C)c1cc(/C=C2\C(=O)ON=C2c2cccs2)cc(C(C)(C)C)c1O |  | 
1.2 µM | 2.5 µM | COc1ccc(/C=C2\C(=O)ON=C2c2cccs2)cc1 | 96% | 89%
2.5 µM | 2.6 µM | Cc1cc(/C=C2\C(=O)ON=C2c2cccs2)cc(C)c1O |  | 
3.5 µM | 3.4 µM | O=C1ON=C(c2cccs2)/C1=C/c1ccc(O)c(O)c1 | 87% | 
11 µM |  | COc1cc(/C=C2\C(=O)ON=C2c2cccs2)cc(OC)c1O | 72% | 
2.1 µM | 4.2 µM | CN(C)c1ccc(/C=C2\C(=O)ON=C2c2cccs2)cc1 | 89% | 88%

— ChEMBL document CHEMBL1128002, “Selective inhibitors of protein kinase C in a model of graft-vs-host disease” (Bioorg Med Chem Lett, 1994)
